One may read the melting point as the temperature, or range, at which the solid turns liquid. As a reminder, the IC50 is the concentration that inhibits the measured activity by half.

Data set [1] has as its system bicistronic HCV replicon (replicon RNA, GenBank Accession No. AJ242654). The data set can be described thus: HCV Replicon Assay. To be noted: Hepatitis C virus, 72 h, read-out: Replicon IC50. The format is cell-based. On the technique in general: Replicon systems follow genome replication, usually without infectious particles.

`Cc1ccc2c(c1)c(C#N)c(-c1ncc(S(=O)(=O)NC(C)C)cn1)n2C(C)C` [compound 565, 2-[3-cyano-5-methyl-1-(propan-2-yl)-1H-indol-2-yl]-N-(propan-2-yl)pyrimidine-5-sulfonamide] gave a melting point of 175 to 177 °C. In data set [1], the IC50 is below 500 nM.
In the case of `N#Cc1c(-c2ccc(S(=O)(=O)NC(CF)CF)cn2)n(-c2ccccn2)c2ccc(F)cc12` [compound 96, 6-[3-cyano-5-fluoro-1-(pyridin-2-yl)-1H-indol-2-yl]-N-(1,3-difluoropropan-2-yl)pyridine-3-sulfonamide], the melting point lay within 170 to 172 °C. The 50% inhibitory concentration (IC50) in data set [1] is below 500 nM.
Take `C[C@H](NS(=O)(=O)c1cnc(-c2c(C#N)c3cc(C(F)F)ccc3n2C2CCC2)nc1)C(F)(F)F` [compound 380, 2-[3-cyano-1-cyclobutyl-5-(difluoromethyl)-1H-indol-2-yl]-N-[(2S)-1,1,1-trifluoropropan-2-yl]pyrimidine-5-sulfonamide]: the melting point fell in the range of 186 to 188 °C. Moreover, the IC50 in data set [1] is below 500 nM.
For `C[C@H](NS(=O)(=O)c1ccc(-c2c(C#N)c3cc(Cl)ccc3n2C2CCCCC2)nc1)C(F)(F)F` [compound 462, 6-(5-chloro-3-cyano-1-cyclohexyl-1H-indol-2-yl)-N-[(2S)-1,1,1-trifluoropropan-2-yl]pyridine-3-sulfonamide], the melting point is 220 to 222 °C. Further, in data set [1], the concentration for half-maximal inhibition (IC50) is below 500 nM.
With `N#Cc1c(-c2ccc(S(=O)(=O)NC3(C(F)(F)F)CC3)cn2)n(-c2ncccn2)c2cc(OC(F)F)ccc12` [compound 690, 6-[3-cyano-6-(difluoromethoxy)-1-(pyrimidin-2-yl)-1H-indol-2-yl]-N-[1-(trifluoromethyl)cyclopropyl]pyridine-3-sulfonamide], the melting point lay within 170 to 174 °C. In addition, the concentration for half-maximal inhibition (IC50) in data set [1] is 500 to 2000 nM.
The compound `CCc1cc2c(C#N)c(-c3ccc(S(=O)(=O)N[C@@H](C)C(F)(F)F)cn3)n(C3CCC3)c2cc1OC(F)F` [compound 647, 6-[3-cyano-1-cyclobutyl-6-(difluoromethoxy)-5-ethyl-1H-indol-2-yl]-N-[(2S)-1,1,1-trifluoropropan-2-yl]pyridine-3-sulfonamide] came in with a melting point of 160 to 162 °C. For the same compound, the concentration for half-maximal inhibition (IC50) in data set [1] is 500 to 2000 nM.
In turn, `COc1cc2c(C(N)=O)c(-c3ccc(S(=O)(=O)N[C@H](C)C(F)(F)F)cn3)n(C3CCCC3)c2cc1C` [compound 834, 1-cyclopentyl-5-methoxy-6-methyl-2-(5-{[(2R)-1,1,1-trifluoropropan-2-yl]sulfamoyl}pyridin-2-yl)-1H-indole-3-carboxamide] had a melting point of 273 to 275 °C. Further, the half-maximal inhibitory concentration (IC50) in data set [1] fell in the range of 2000 to 5000 nM.
On the same counts, the results for `CC(C)Oc1ccc2c(C#N)c(-c3ccc(NS(=O)(=O)C(C)C)cn3)n(CC3CC3)c2c1` [compound 281, N-{6-[3-cyano-1-(cyclopropylmethyl)-6-(propan-2-yloxy)-1H-indol-2-yl]pyridin-3-yl}propane-2-sulfonamide] are 168 to 172 °C and 500 to 2000 nM.
In turn, `Cc1ccc2c(c1)c(C#N)c(-c1ccc(S(=O)(=O)N[C@@H](C)C(F)(F)F)cn1)n2-c1cnccn1` [compound 845, 6-[3-cyano-5-methyl-1-(pyrazin-2-yl)-1H-indol-2-yl]-N-[(2S)-1,1,1-trifluoropropan-2-yl]pyridine-3-sulfonamide] had a melting point of 236 to 241 °C. For the same compound, the concentration for half-maximal inhibition (IC50) in data set [1] was below 500 nM.
On the same counts, the results for `Cc1ccc2c(C#N)c(-c3ncc(S(=O)(=O)N[C@@H](C)C(F)(F)F)cn3)n(C(C)C)c2c1` [compound 403, 2-[3-cyano-6-methyl-1-(propan-2-yl)-1H-indol-2-yl]-N-[(2S)-1,1,1-trifluoropropan-2-yl]pyrimidine-5-sulfonamide] are 235 to 236 °C and 500 to 2000 nM.
On to `CC(C)NS(=O)(=O)c1cnc(-c2c(C#N)c3cc(Cl)ccc3n2C2CCC2)nc1` [compound 114, 2-(5-chloro-3-cyano-1-cyclobutyl-1H-indol-2-yl)-N-(propan-2-yl)pyrimidine-5-sulfonamide], for which the melting point was > 198 °C (dec.). The concentration for half-maximal inhibition (IC50) in data set [1] was below 500 nM.
In turn, `COc1ccc2c(c1)c(C#N)c(-c1ccc(S(=O)(=O)N[C@@H](C)C(F)(F)F)cn1)n2C1CCC1` [compound 453, 6-(3-cyano-1-cyclobutyl-5-methoxy-1H-indol-2-yl)-N-[(2S)-1,1,1-trifluoropropan-2-yl]pyridine-3-sulfonamide] showed a melting point of 181 to 183 °C. Also, the 50% inhibitory concentration (IC50) in data set [1] is below 500 nM.
On the same counts, the results for `C[C@H](NS(=O)(=O)c1ccc(-c2c(C#N)c3cc(F)ccc3n2C2CCC2)nc1)C1CC1` [compound 142, 6-(3-cyano-1-cyclobutyl-5-fluoro-1H-indol-2-yl)-N-[(1S)-1-cyclopropylethyl]pyridine-3-sulfonamide] are 128 to 130 °C and below 500 nM.
The compound `Cc1cc2c(cc1F)c(C(N)=O)c(-c1ccc(S(=O)(=O)NC3(C(F)(F)F)CC3)cn1)n2C1CCCC1` [compound 730, 1-cyclopentyl-5-fluoro-6-methyl-2-(5-{[1-(trifluoromethyl)cyclopropyl]sulfamoyl}pyridin-2-yl)-1H-indole-3-carboxamide] showed a melting point of 220 to 221 °C. Moreover, the 50% inhibitory concentration (IC50) in data set [1] is below 500 nM.
For the compound `C[C@H](NS(=O)(=O)c1ccc(-c2c(C#N)c3ccc(C(F)(F)F)cc3n2-c2ncccn2)nc1)C(F)(F)F` [compound 950, 6-[3-cyano-1-(pyrimidin-2-yl)-6-(trifluoromethyl)-1H-indol-2-yl]-N-[(2S)-1,1,1-trifluoropropan-2-yl]pyridine-3-sulfonamide], the melting point was in the range of 206 to 210 °C. Also, the IC50 in data set [1] is below 500 nM.
`Cc1ccc2c(c1)c(C#N)c(-c1ncc(S(=O)(=O)NC(C)C)cn1)n2C1CCC1` [compound 121, 2-(3-cyano-1-cyclobutyl-5-methyl-1H-indol-2-yl)-N-(propan-2-yl)pyrimidine-5-sulfonamide] gave a melting point of 134 to 138 °C. The half-inhibitory concentration (IC50) in data set [1] is below 500 nM.
On the same counts, the results for `CCCn1c(-c2ccc(S(=O)(=O)NC(CF)CF)cn2)c(C#N)c2ccc(OC(F)F)cc21` [compound 45, 6-[3-cyano-6-(difluoromethoxy)-1-propyl-1H-indol-2-yl]-N-(1,3-difluoropropan-2-yl)pyridine-3-sulfonamide] are 156 to 158 °C and below 500 nM.
On the same counts, the results for `N#Cc1c(-c2ncc(S(=O)(=O)NC(CF)CF)cn2)n(C2CCCC2)c2cc(C3CC3)ccc12` [compound 173, 2-(3-cyano-1-cyclopentyl-6-cyclopropyl-1H-indol-2-yl)-N-(1,3-difluoropropan-2-yl)pyrimidine-5-sulfonamide] are 215 to 219 °C and below 500 nM.
On to `Cc1cc2c(cc1F)c(C(N)=O)c(-c1ccc(S(=O)(=O)N[C@@H](C)C(F)(F)F)cn1)n2-c1cnccn1` [compound 875, 5-fluoro-6-methyl-1-(pyrazin-2-yl)-2-(5-{[(2S)-1,1,1-trifluoropropan-2-yl]sulfamoyl}pyridin-2-yl)-1H-indole-3-carboxamide], for which the melting point lay in the range of 162 to 169 °C. The IC50 in data set [1] was below 500 nM.
As for `C[C@H](NS(=O)(=O)c1cnc(-c2c(C#N)c3ccc(F)cc3n2C2CCC2)nc1)C1CC1` [compound 496, 2-(3-cyano-1-cyclobutyl-6-fluoro-1H-indol-2-yl)-N-[(1S)-1-cyclopropylethyl]pyrimidine-5-sulfonamide], the melting point is 207 to 208 °C. Moreover, the IC50 in data set [1] lay in the range of 500 to 2000 nM.
On the same counts, the results for `Cc1cc2c(cc1F)c(C(N)=O)c(-c1ccc(S(=O)(=O)NC(C)(C)C)cn1)n2C1CCCCC1` [compound 1115, 2-[5-(tert-butylsulfamoyl)pyridin-2-yl]-1-cyclohexyl-5-fluoro-6-methyl-1H-indole-3-carboxamide] are 274.5 to 275.6 °C and below 500 nM.
`CCc1cc2c(cc1F)c(C(N)=O)c(-c1ccc(S(=O)(=O)N[C@@H](C)C(F)(F)F)cn1)n2-c1ccnc(C)n1` [compound 982, 6-ethyl-5-fluoro-1-(2-methylpyrimidin-4-yl)-2-(5-{[(2S)-1,1,1-trifluoropropan-2-yl]sulfamoyl}pyridin-2-yl)-1H-indole-3-carboxamide] returned a melting point of 115 to 120 °C. Further, the half-inhibitory concentration (IC50) in data set [1] is 2000 to 5000 nM.
For `N#Cc1c(-c2ncc(S(=O)(=O)NC(CF)CF)cn2)n(C2CCCC2)c2ccc(C(F)F)cc12` [compound 536, 2-[3-cyano-1-cyclopentyl-5-(difluoromethyl)-1H-indol-2-yl]-N-(1,3-difluoropropan-2-yl)pyrimidine-5-sulfonamide], the melting point was in the range of 176 to 177 °C. Also, the IC50 in data set [1] is below 500 nM.
In the case of `C[C@H](NS(=O)(=O)c1cnc(-c2c(C#N)c3ccc(F)cc3n2CC2CC2)nc1)C1CC1` [compound 498, 2-[3-cyano-1-(cyclopropylmethyl)-6-fluoro-1H-indol-2-yl]-N-[(1S)-1-cyclopropylethyl]pyrimidine-5-sulfonamide], the melting point was 198 to 199 °C. In addition, the IC50 in data set [1] lay within 500 to 2000 nM.
In turn, `Cc1ccc2c(c1)c(C#N)c(-c1ncc(S(=O)(=O)N[C@@H](C)C(F)(F)F)cn1)n2C1CCC1` [compound 414, 2-(3-cyano-1-cyclobutyl-5-methyl-1H-indol-2-yl)-N-[(2S)-1,1,1-trifluoropropan-2-yl]pyrimidine-5-sulfonamide] displayed a melting point of 190 to 195 °C. In data set [1], the IC50 was below 500 nM.
`Cc1cc2c(cc1F)c(C#N)c(-c1ccc(S(=O)(=O)NC(CF)CF)cn1)n2C1CCCC1` [compound 407, 6-(3-cyano-1-cyclopentyl-5-fluoro-6-methyl-1H-indol-2-yl)-N-(1,3-difluoropropan-2-yl)pyridine-3-sulfonamide]: the melting point is 211 to 213 °C. For the same compound, in data set [1], the IC50 was below 500 nM.
In turn, `Cc1cnc(-n2c(-c3ccc(S(=O)(=O)N[C@@H](C)C(F)(F)F)cn3)c(C#N)c3cc(F)c(C)cc32)s1` [compound 1017, 6-[3-cyano-5-fluoro-6-methyl-1-(5-methyl-1,3-thiazol-2-yl)-1H-indol-2-yl]-N-[(2S)-1,1,1-trifluoropropan-2-yl]pyridine-3-sulfonamide] yielded a melting point of 223.1 to 228.1 °C. Besides, the IC50 in data set [1] was below 500 nM.

The values are drawn from patent publication US8735414B2 (priority 2009, dated 2014).
